Laboratory results published in patent US8497240B2 (priority 2006, dated 2013).
Where “and” joins values, the source holds several entries; their conditions need not be identical. Equal entries are not always repeated. Where two headings read alike, the source gives them in different places. Ends that are not written are not given here.

Key:
human GIP receptor = target: T1, human GIP receptor (Homo sapiens, UniProt P48546); assay: biochemical; type: binding
T1 construct: expressed in transfected cells; host or cells: HEK293 (HEK-GIPR), membranes
T1 sequence (P48546 22-466): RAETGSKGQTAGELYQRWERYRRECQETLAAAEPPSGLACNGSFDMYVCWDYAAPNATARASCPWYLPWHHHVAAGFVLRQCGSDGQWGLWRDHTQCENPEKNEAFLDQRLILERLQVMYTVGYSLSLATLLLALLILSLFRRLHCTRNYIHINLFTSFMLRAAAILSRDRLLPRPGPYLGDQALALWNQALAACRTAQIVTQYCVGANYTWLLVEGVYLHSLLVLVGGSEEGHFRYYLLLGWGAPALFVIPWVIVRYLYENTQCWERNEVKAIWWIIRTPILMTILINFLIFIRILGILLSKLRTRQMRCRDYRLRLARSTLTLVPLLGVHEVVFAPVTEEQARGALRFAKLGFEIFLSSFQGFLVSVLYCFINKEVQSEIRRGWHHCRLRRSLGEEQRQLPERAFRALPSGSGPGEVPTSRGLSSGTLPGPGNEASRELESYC

[1] = type: in vivo, NIH/Swiss mice
Experimental: (§1) In FIG. 3A, bars represent mean±sd, n=6-10. […] Gavage (1.5 g/kg) was given at t=0, Sample was taken at t=30 min. […] In FIG. 3B, points represent mean±sem, n=8-15.
Peptide was injected IP at t=−5 minutes into 4-hour fasted NIH/Swiss female mice. […] In FIG. 17 points represent mean+/−sem. […] Samples were taken at t=60, t=120 and t=180.

[2] = type: in vivo, NIH/Swiss mice; conditions: for Basal Gluc. Low. 80 nmol/Kg / Basal Glucose Lowering at Peptide Conc. of 80 nmol/kg: AUC240; for basal glucose lowering (% maximal decrease): mouse, in vivo
Experimental: as §1
Points represent mean±sem.

[3] = IVGTT duration of action assay (single SC injection before glucose); type: in vivo, rat; conditions: for Duration In The Rat IVGTT Assay: compared with 0601GIP3794 (794), dosed at −120 min
Experimental: To determine a duration of action using the IVGTT assay, the sample was injected SC as a single injection at one time point indicated (e.g., t=−240, −120, −60 or −30) prior to administration of glucose. IV glucose was given at t=0.

[4] = normal men, infusion; cited from earlier work
[5] = test system: cardiomyocyte Gs-coupled receptors; assay: cAMP production in neonatal cardiomyocytes (HTRF, Gs-coupled receptor activation); type: cell-based, rat
Experimental: Activation of cardiomyocyte Gs- and Gi-coupled receptors was determined as a measure of cAMP production.
Neonatal cardiomyocytes were isolated using a commercially available system. […] Sprague Dawley neonatal rats (1-2 days old) were decapitated and the beating heart dissected out into digestion buffer (Cellutron D1 buffer) to dissociate cells. […] The resuspended cells incubated in buffer (Cellutron D3 buffer) for sufficient time to allow optimal dispersion and minimize the need for pipetting to break up clumps. Cells released from the first 2 digestions were discarded since a significant portion of these is red blood cells. Resuspended cells were filtered and allowed to pre-plate for 1 hour on plastic in an incubator in NS media (Cellutron, N.J.) in order to remove fibroblasts. After 1 hour of pre-plating, floating cells are removed and the flask rinsed with NS media. The floating cells and the cells in the rinse media were combined and counted. Residual red blood cells, which are smaller that the cardiac myocytes, were not counted.
At Day 1, the NS media was replaced with fresh NS media.
Dose response was determined.
For Gs assays the positive control was 10 uM forskolin and negative control was buffer. For Gi assays the positive control was buffer and the negative control was 10 uM forskolin.

[6] = conscious rats, cited from earlier work
[7] = Intravenous glucose tolerance test (IVGTT), i.v. infusion; type: in vivo, rat; conditions: for Standard IVGTT assay IV infusion (insulin AUC 0-30 min): IV infusion 100 pmol/min/kg; for Standard IVGTT assay IV infusion (insulin AUC 0-30 min) / IVGTT > = < Compared to 0601GIP3794: rat; for IVGTT > = < Compared to 0601GIP3794: in vivo
Experimental: In the typical IVGTT assays the test sample was administered by IV infusion. The IV infusion of sample was initiated at t=−30 min and continued through t=90. IV glucose was given at t=0. To determine a duration of action using the IVGTT assay, the sample was injected SC as a single injection at one time point indicated (e.g., t=−240, −120, −60 or −30) prior to administration of glucose. IV glucose was given at t=0.
As described, fed, isoflurane anesthetized HSD male rats were intubated and cannulated via femoral artery and vein and allowed to stabilize for 1 hour. […] At t=0, an i.v. bolus of 5.7 mmol/kg D-glucose was administered over 2 minutes. Samples for glucose measurement and insulin concentrations were taken at various time points before and after (0 to 90 minutes) glucose infusion.

[8] = for Mouse Food Intake, % basal: dose per compound (4.8 to 25 nmol/Kg)
[9] = read-out: (% Inh 10 nm, GIP-LF Assay)
[10] = read-out: GIP RBA (% Inh 10 nM)

CC[C@H](C)[C@H](NC(=O)[C@H](C)NC(=O)[C@H](CCCCN)NC(=O)[C@@H]1CCCN1C(=O)[C@H](CCCCN)NC(=O)[C@H](CCC(N)=O)NC(=O)[C@H](C)NC(=O)[C@H](CC(C)C)NC(=O)[C@H](CC(C)C)NC(=O)[C@H](Cc1c[nH]c2ccccc12)NC(=O)[C@H](CC(N)=O)NC(=O)[C@@H](NC(=O)[C@H](Cc1ccccc1)NC(=O)[C@H](CC(=O)O)NC(=O)[C@H](CCC(N)=O)NC(=O)[C@H](CCC(N)=O)NC(=O)[C@H](Cc1c[nH]cn1)NC(=O)[C@@H](NC(=O)[C@H](CCCCN)NC(=O)[C@H](CC(=O)O)NC(=O)[C@H](CCSC)NC(=O)[C@H](C)NC(=O)[C@@H](NC(=O)[C@H](CO)NC(=O)[C@H](Cc1ccc(O)cc1)NC(=O)[C@H](CC(=O)O)NC(=O)[C@H](CO)NC(=O)[C@@H](NC(=O)[C@H](Cc1ccccc1)NC(=O)[C@@H](NC(=O)CNC(=O)[C@H](CCC(=O)O)NC(=O)[C@@H](C)NC(=O)[C@@H](N)Cc1ccc(O)cc1)[C@@H](C)O)[C@@H](C)CC)[C@@H](C)CC)[C@@H](C)CC)C(C)C)C(=O)N[C@@H](CCCNC(=N)N)C(=O)N[C@@H](Cc1ccc(O)cc1)C(=O)N[C@@H](CO)C(N)=O [Compound 0601GIP4816]
inhibition at 0.01 µM (human GIP receptor; [9]): 87.3% | inhibition at 0.01 µM (human GIP receptor; [10]): 87.3% | OGTT/GL (%) ([1]; 30 nmol/kg): −19%, | Basal Gluc. Low. 80 nmol/Kg [2]: −9%, | Duration In The Rat IVGTT Assay [3]: <794@ −120 min

CC[C@H](C)[C@H](NC(=O)[C@H](CO)NC(=O)[C@H](Cc1ccc(O)cc1)NC(=O)[C@H](CC(=O)O)NC(=O)[C@H](CO)NC(=O)[C@@H](NC(=O)[C@H](Cc1ccccc1)NC(=O)[C@@H](NC(=O)CNC(=O)[C@H](CCC(=O)O)NC(=O)[C@@H](C)NC(=O)[C@@H](N)Cc1ccc(O)cc1)[C@@H](C)O)[C@@H](C)CC)C(=O)N[C@@H](C)C(=O)N[C@@H](CCSC)C(=O)N[C@@H](CC(=O)O)C(=O)N[C@@H](CCCCN)C(=O)N[C@H](C(=O)N[C@@H](Cc1c[nH]cn1)C(=O)N[C@@H](CCC(N)=O)C(=O)N[C@@H](CCC(N)=O)C(=O)N[C@@H](CC(=O)O)C(=O)N[C@@H](Cc1ccccc1)C(=O)N[C@H](C(=O)N[C@@H](CC(N)=O)C(=O)N[C@@H](Cc1c[nH]c2ccccc12)C(=O)N[C@@H](CC(C)C)C(=O)N[C@@H](CC(C)C)C(=O)N[C@@H](C)C(=O)N[C@@H](CCC(N)=O)C(=O)N[C@@H](CCCCN)C(=O)N1CCC[C@H]1C(=O)N[C@@H](CCCCN)C(=O)N[C@@H](CO)C(=O)N[C@@H](C)C(=O)N[C@@H](CCCNC(=N)N)C(=O)N1CCC[C@H]1C(=O)N[C@@H](CO)C(N)=O)C(C)C)[C@@H](C)CC [Compound 0601GIP4821]
inhibition at 0.01 µM (human GIP receptor; [9]): 93.5% | inhibition at 0.01 µM (human GIP receptor; [10]): 93.5% | OGTT/GL (%) ([1]; 30 nmol/kg): −28, % | Basal Gluc. Low. 80 nmol/Kg [2]: −5%, | Duration In The Rat IVGTT Assay [3]: <794@ −120 min

CC[C@H](C)[C@H](NC(=O)[C@H](CO)NC(=O)[C@H](Cc1ccc(O)cc1)NC(=O)[C@H](CC(=O)O)NC(=O)[C@H](CO)NC(=O)[C@@H](NC(=O)[C@H](Cc1ccccc1)NC(=O)[C@@H](NC(=O)CNC(=O)[C@H](CCC(=O)O)NC(=O)[C@@H](C)NC(=O)[C@@H](N)Cc1ccc(O)cc1)[C@@H](C)O)[C@@H](C)CC)C(=O)N[C@@H](C)C(=O)N[C@@H](CCSC)C(=O)N[C@@H](CC(=O)O)C(=O)N[C@@H](CCCCN)C(=O)N[C@H](C(=O)N[C@@H](Cc1c[nH]cn1)C(=O)N[C@@H](CCC(N)=O)C(=O)N[C@@H](CCC(N)=O)C(=O)N[C@@H](CC(=O)O)C(=O)N[C@@H](Cc1ccccc1)C(=O)N[C@H](C(=O)N[C@@H](CC(N)=O)C(=O)N[C@@H](Cc1c[nH]c2ccccc12)C(=O)N[C@@H](CC(C)C)C(=O)N[C@@H](CC(C)C)C(=O)N[C@@H](C)C(=O)N[C@@H](CCC(N)=O)C(=O)N[C@@H](CCCCN)C(=O)N1CCC[C@H]1C(=O)N[C@@H](CCCCN)C(=O)N[C@@H](CCCCN)C(=O)N[C@@H](C)C(=O)N[C@@H](CCCNC(=N)N)C(=O)N[C@@H](Cc1ccc(O)cc1)C(=O)N[C@@H](CO)C(N)=O)C(C)C)[C@@H](C)CC [Compound 0601GIP4856]
inhibition at 0.01 µM (human GIP receptor; [9]): 83.7% | OGTT/GL (%) ([1]; 30 nmol/kg): −29, % | Basal Gluc. Low. 80 nmol/Kg [2]: −3%, | Duration In The Rat IVGTT Assay [3]: <794@ −120 min

BNP: brain natriuretic peptide
increase in sodium excretion [4]: 2 fold | reduction in plasma renin, angiotensin II and aldosterone secretion [4]: 50%

HAEGTFTSDVSSYLEGQAAKEFIAWLVKGR [GLP-1]
cAMP activity in cardiomyocytes [5]: very low to no significant activity

HSDGIFTDSYSRYRKQMAVKKYLAAVLGKRYKQRVKNK-NH2 [PACAP38]
inhibition of gastric emptying at doses of 100 μg [6]: either weakly active or inactive

Human GIP
Standard IVGTT assay IV infusion (insulin AUC 0-30 min) [7]: 226 | Duration of action in assay (insulin AUC 0-30 min) ([3]; SC inj T = −30 min): 57

KCNTATCATQRLANFLVRSSNNLGPVLPPTNVGSNTY [rat amylin]
Mouse Food Intake, % basal ([8]; 30 min): −58 % basal | Mouse Food Intake, % basal ([8]; 60 min): −40 % basal | Mouse Food Intake, % basal ([8]; 120 min): −36.5 % basal | Mouse Food Intake, % basal ([8]; 180 min): −35.5 % basal | food intake ([8]; mouse, in vivo, ip): significant decrease in food intake within 30 min | EC(50) nmol/kg for inhibition of gastric emptying ([6]; subcutaneous 5 min before gavage): 0.23 nmol/kg

VIP: vasoactive intestinal peptide (HSDAVFTDNYTRLRKQMAVKKYLNSILN; ends and bridges not checked; UniProt P01282 125-152, looked up)
inhibition of gastric emptying at doses of 100 μg [6]: either weakly active or inactive

[dAla2, Leu14, Ala18, glu21] GIP-(1-30)-Exendin-4 (31-39) [Compound 0601GIP4285]
OGTT/GL (%) ([1]; 30 nmol/kg): −17% and −17 30 nmol/kg, % | OGTT/GL (%) ([1]; 350 nmol/kg): −10 350 nmol/kg % | Basal Gluc. Low. 80 nmol/Kg [2]: −2%, | Basal Glucose Lowering at Peptide Conc. of 80 nmol/kg [2]: −2%, AUC240 | IVGTT > = < Compared to 0601GIP3794 [7]: =

[dAla2, Leu14, beta-Ala31, beta-Ala32] GIP-(1-32)-Exendin-4 (31-39) [Compound 0601GIP4179]
OGTT/GL (%) ([1]; 30 nmol/kg): −24 30 nmol/kg, % | OGTT/GL (%) ([1]; 350 nmol/kg): −23 350 nmol/kg % | Basal Glucose Lowering at Peptide Conc. of 80 nmol/kg [2]: −17%, AUC240 | IVGTT > = < Compared to 0601GIP3794 [7]: =

[dAla2]GIP-(1-30)-[Octylglycine 34] Exendin-4 (31-39) [Compound 0601GIP4252]
Basal Glucose Lowering at Peptide Conc. of 80 nmol/kg [2]: −7%, AUC240 | Standard IVGTT assay IV infusion (insulin AUC 0-30 min) [7]: 218 | IVGTT > = < Compared to 0601GIP3794 [7]: =

adrenomedullin: amylin family peptide hormone (YRQSMNNFQGLRSFGCRFGTCTVQKLAHQIYQFTDKDKDNVAPRSKISPQGY; ends and bridges not checked; cysteine pairing not given here; UniProt P35318 95-146, looked up)
inhibition of gastric emptying at doses of 100 μg [6]: either weakly active or inactive

dAla2-GIP(1-42) acid form [Compound 0601GIP4042]
basal glucose lowering (% maximal decrease) [2]: −11% | insulinotropic response to an intravenous glucose challenge (IVGTT assay) ([7]; 100 pmol/kg/min infusion, rats): significant enhancement of the insulinotropic response

glucagon: peptide hormone
inhibition of gastric emptying at doses of 100 μg [6]: either weakly active or inactive

insulin: peptide hormone
inhibition of gastric emptying at doses of 100 μg [6]: either weakly active or inactive

neuropeptide Y: peptide hormone of the pancreatic polypeptide family
inhibition of gastric emptying at doses of 100 μg [6]: either weakly active or inactive

octylglycine-GIP(1-30)-Exendin-4-(31-39) [Compound 0601GIP4178]
OGTT/GL (%) ([1]; 350 nmol/kg): −20% | OGTT response ([1]; mouse, in vivo): −20% | Basal Glucose Lowering at Peptide Conc. of 80 nmol/kg [2]: −13%, AUC240 | basal glucose lowering (% maximal decrease) [2]: −20% | insulin levels prior to the glucose challenge ([7]; 100 pmol/kg/min infusion, rats): significant rise in insulin levels | insulinotropic response to an intravenous glucose challenge (IVGTT assay) ([7]; 100 pmol/kg/min infusion, rats): diminished insulinotropic response | IVGTT > = < Compared to 0601GIP3794 [7]: <
